For data set [1], the system named is malignant tumor patients. The experiment in a line: Preliminary and overall therapeutic effect in malignant tumor patients. The data set is classed as in vivo, human. Particulars: continuous administration for two weeks and rest for one week. The method, then:
The malignant tumor patients those were diagnosed definitely and had failed standard treatment or lacking standard treatment were recruited for phase I study of tolerance and preliminary therapeutic effect. The tolerance was observed when patients were administered 5 mg or 10 mg of the capsules of dihydrochloride of Compound I once daily respectively for at least 2 cycles continuously, wherein each cycle was 28 days.
After the adjustment of the dosage regimen, the malignant tumor patients those were diagnosed definitely and had failed standard treatment or lacking standard treatment were recruited, continuous administrating for 2 weeks and resting for 1 week were applied, i.e., 3 weeks (21 days) was a treatment cycle, and the observation of tolerance was continuously performed and maintained at least 2 cycles (42 days), and the observation of therapeutic effects was performed at the same time.

A short description of data set [2]: Pharmacokinetics of single administration in solid tumour subjects. Format: in vivo. The settings on record: human, plasma, single oral administration. As for the experimental part:
(§1) All the solid tumour subjects participating in the tolerance research in Example 3 were performed a monitor of plasma concentration to evaluate pharmacokinetic parameters of the capsule of Compound I dihydrochloride. • (1) Pharmacokinetics of Single Administration
After beginning the tests, the qualified subjects took the capsule of Compound I dihydrochloride once and performed pharmacokinetic studies of single administration.

A short description of data set [3]: Pharmacokinetics of continuous administration (2 weeks, rest 1 week) in solid tumour subjects. Particulars: human, plasma, oral. Format: in vivo. The method, then: as §1
The qualified subjects took the drug once and performed pharmacokinetic monitor of single administration. After subjecting to at least 7 days of a washout period, pharmacokinetic studies of continuous administration were performed. One treating cycle has continuous administration for 2 weeks and rest for 1 week, and continuous monitor were applied for at least 2 cycles. A total of 21 subjects in 3 dose groups (10 mg, 16 mg and 12 mg, respectively) continuously took the capsules of Compound I dihydrochloride, while performing the monitor of plasma concentration.

Counter-ions that a name gives are not always drawn. Like-named read-outs stand apart in the source and are kept apart here.

Turning to `COc1cc2c(Oc3ccc4[nH]c(C)cc4c3F)ccnc2cc1OCC1(N)CC1` [Compound I dihydrochloride, 1-[[[4-(4-fluoro-2-methyl-1H-indol-5-yl)oxy-6-methoxyquinolin-7-yl]oxy]methyl]cyclopropylamine dihydrochloride], the “therapeutic effects, overall” value in data set [1] is “various tumours can benefit”.

By AUC(0-inf) is commonly meant the area under the concentration-time curve extrapolated to infinity. Higher therefore signals high exposure. By AUC(0-t) is commonly meant exposure summed from dosing to a finite time, without extrapolation to infinity. A high value points to high exposure. The term Cmax denotes the highest concentration seen after dosing. One may read the MRT as a mean duration of stay, worked out from the concentration-time curve. What is called Tmax is the time from dosing to the highest level. Turning to `COc1cc2c(Oc3ccc4[nH]c(C)cc4c3F)ccnc2cc1OCC1(N)CC1` [Compound I, 1-[[[4-(4-fluoro-2-methyl-1H-indol-5-yl)oxy-6-methoxyquinolin-7-yl]oxy]methyl]cyclopropylamine], the AUC(0-inf) in data set [2] (10 mg/person, n = 4, mean) is 570 ng·h/mL; in data set [2] (12 mg/person, n = 11, mean), 1160 ng·h/mL; in data set [2] (16 mg/person, n = 4, mean), 1720 ng·h/mL. Moreover, the AUC(0-t) in data set [2] (10 mg/person, n = 4, mean) is 327 ng·h/mL; in data set [2] (12 mg/person, n = 11, mean) it was 938 ng·h/mL; in data set [2] (16 mg/person, n = 4, mean), 1330 ng·h/mL. In addition, the Cmax in data set [2] (10 mg/person, n = 4, mean) was 6.07 ng/mL; in data set [2] (12 mg/person, n = 11, mean) it was 11.3 ng/mL; in data set [2] (16 mg/person, n = 4, mean), 16.1 ng/mL; in data set [3] (10 mg/person, n = 3, average (RSD %)), 64.9 ng/mL; in data set [3] (12 mg/person, n = 15, average (RSD %)), 67 ng/mL; in data set [3] (16 mg/person, n = 3, average (RSD %)) it was 93.1 ng/mL. Also, the MRT in data set [2] (10 mg/person, n = 4, mean) was found to be 142 h; in data set [2] (12 mg/person, n = 11, mean) it was 162 h; in data set [2] (16 mg/person, n = 4, mean), 163 h. The Tmax in data set [2] (10 mg/person, n = 4, mean) turned out to be 6.75 h; in data set [2] (12 mg/person, n = 11, mean), 8.73 h; in data set [2] (16 mg/person, n = 4, mean), 10 h. For the same compound, the half-life in data set [2] (10 mg/person, n = 4, mean, read-out: t1/2 (converted)) is 88.9 h; in data set [2] (12 mg/person, n = 11, mean, read-out: t1/2 (converted)) it was 92 h; in data set [2] (16 mg/person, n = 4, mean, read-out: t1/2 (converted)), 96.7 h; in data set [2] (read-out: half-life period (t1/2)), 80 to 100 h.

(Values after patent US10251876B2, “Method for treating tumour, pharmaceutical composition and medicinal kit” (CHIA TAI TIANQING PHARMACEUTICAL GROUP CO., LTD., priority 2014, dated 2019).)
